# In patent publication US4740233A, “Substituted 1,2,4-triazolo[1,5-a]-pyrimidine-2-sulfonamides and compositions and methods of controlling undesired vegetation and suppressing the nitrification of ammonium nitrogen in soil” (The Dow Chemical Company, priority 1986, dated 1988):
# Columns and labels:
# Assay in all cases: Preemergent control of plant species
# annual morning glory = type: in vivo, Ipomoea spp.; conditions: Ipomoea, pre-emergence, 336 h; 0.25 lb/acre; read-out: percent preemergent control
# Experimental: (§1) The seeds of various species of plants were planted in beds of good agricultural soil in a greenhouse. A number of compositions of the present invention, generally in the nature of an aqueous emulsion, were applied at rates listed in the table so as to deposit a predetermined amount of active ingredients uniformly throughout the surface of the bed. Another seed bed was treated only with water to serve as a control. After treatment the seed beds were maintained for two weeks under greenhouse conditions conducive for good plant growth and watered as necessary. Control refers to the reduction in growth compared to the observed results of the same untreated species.
# rape = type: in vivo, Brassica napus; conditions: Brassica napus, pre-emergence, 336 h; 0.25 lb/acre; read-out: percent preemergent control
# Experimental: as §1
# wheat = type: in vivo, Triticum aestivum; conditions: Triticum aestivum, pre-emergence, 336 h; 0.25 lb/acre; read-out: percent preemergent control
# Experimental: as §1
# yellow nutsedge = type: in vivo, Cyperus esculentus; conditions: Cyperus, pre-emergence, 336 h; 0.25 lb/acre; read-out: percent preemergent control
# Experimental: as §1
# rice = type: in vivo, Oryza sativa; conditions: Oryza sativa, pre-emergence, 336 h; 0.25 lb/acre; read-out: percent preemergent control
# Experimental: as §1
# sugar beet = type: in vivo, Beta saccharifera; conditions: Beta vulgaris, pre-emergence, 336 h; 0.25 lb/acre; read-out: percent preemergent control
# Experimental: as §1
# cotton = type: in vivo, Gossypium spp.; conditions: Gossypium hirsutum, pre-emergence, 336 h; 0.25 lb/acre; read-out: percent preemergent control
# Experimental: as §1
# velvetleaf = type: in vivo, Abutilon theophrasti; conditions: Abutilon theophrasti, pre-emergence, 336 h; 0.25 lb/acre; read-out: percent preemergent control
# Experimental: as §1
# yellow foxtail = type: in vivo, Setaria lutescens; conditions: Setaria, pre-emergence, 336 h; 0.25 lb/acre; read-out: percent preemergent control
# Experimental: as §1
# corn = type: in vivo, Zea mays; conditions: Zea mays, pre-emergence, 336 h; 0.25 lb/acre; read-out: percent preemergent control
# Experimental: as §1
# johnson grass = type: in vivo, Sorghum halepense; conditions: Sorghum halepense, pre-emergence, 336 h; 0.25 lb/acre; read-out: percent preemergent control
# Experimental: as §1
# sorghum = type: in vivo, Sorghum vulgare; conditions: Sorghum, pre-emergence, 336 h; 0.25 lb/acre; read-out: percent preemergent control
# Experimental: as §1
# jimsonweed = type: in vivo, Datura stramonium; conditions: Datura stramonium, pre-emergence, 336 h; 0.25 lb/acre; read-out: percent preemergent control
# Experimental: as §1
# soybean = type: in vivo, Glycine max.; conditions: Glycine max, pre-emergence, 336 h; 0.25 lb/acre; read-out: percent preemergent control
# Experimental: as §1
# barnyardgrass = type: in vivo, Echinochloa crusgalli; conditions: Echinochloa crus-galli, pre-emergence, 336 h; 0.25 lb/acre; read-out: percent preemergent control
# Experimental: as §1
SMILES,pest or weed control at 280.212 g/ha (annual morning glory) [%],plant injury at 280.212 g/ha (rape) [%],plant injury at 280.212 g/ha (wheat) [%],pest or weed control at 280.212 g/ha (yellow nutsedge) [%],plant injury at 280.212 g/ha (rice) [%],plant injury at 280.212 g/ha (sugar beet) [%],plant injury at 280.212 g/ha (cotton) [%],pest or weed control at 280.212 g/ha (velvetleaf) [%],pest or weed control at 280.212 g/ha (yellow foxtail) [%],plant injury at 280.212 g/ha (corn) [%],pest or weed control at 280.212 g/ha (johnson grass) [%],plant injury at 280.212 g/ha (sorghum) [%],pest or weed control at 280.212 g/ha (jimsonweed) [%],plant injury at 280.212 g/ha (soybean) [%],pest or weed control at 280.212 g/ha (barnyardgrass) [%]
COc1nc2nc(S(=O)(=O)Nc3ccccc3C(F)(F)F)nn2cc1C [Compound 217],100,100,100,70,90,100,100,100,50,50,100,100,100,100,90
COc1nc2nc(S(=O)(=O)Nc3c(Cl)ccc(C)c3Cl)nn2cc1C [Compound 218],100,100,0,50,0,100,100,100,50,0,50,95,100,100,0
COc1nc2nc(S(=O)(=O)Nc3c(F)ccc(C)c3F)nn2cc1C [Compound 219],100,100,100,100,50,100,100,100,100,100,10,100,100,100,100
COc1nc2nc(S(=O)(=O)Nc3c(C)cccc3Cl)nn2cc1C [Compound 220],70,100,100,100,50,100,100,100,100,100,100,100,100,90,90
COc1nc2nc(S(=O)(=O)Nc3c(C)cccc3[N+](=O)[O-])nn2cc1C [Compound 221],100,100,90,100,100,100,100,100,100,90,70,100,100,100,100
COc1nc2nc(S(=O)(=O)Nc3c([N+](=O)[O-])ccc(C)c3C)nn2cc1C [Compound 222],90,100,0,50,90,100,100,100,30,40,100,50,100,100,0
Cc1cc(C(F)(F)F)n2nc(S(=O)(=O)Nc3c(Cl)cccc3Cl)nc2n1 [Compound 227],70,100,90,100,50,100,60,30,90,40,70,100,100,0,50
Cc1cc(C(F)(F)F)n2nc(S(=O)(=O)Nc3c(Cl)ccc(C)c3Cl)nc2n1 [Compound 229],100,100,0,100,10,100,100,90,0,40,0,90,90,30,0
Cc1cc(C(F)(F)F)n2nc(S(=O)(=O)Nc3c(F)ccc(C)c3F)nc2n1 [Compound 230],90,90,30,100,50,100,100,90,80,90,90,100,100,20,100
CCC(=O)N(c1c(F)cccc1F)S(=O)(=O)c1nc2nc(C)ccn2n1 [Compound 276],90,100,80,100,90,100,80,100,100,60,90,100,100,10,100
Cc1ccn2nc(S(=O)(=O)N(C(=O)CC(C)(C)C)c3c(F)cccc3F)nc2n1 [Compound 278],100,100,70,100,90,100,100,100,100,60,90,100,100,70,100
Cc1ccn2nc(S(=O)(=O)N(C(=O)C(C)(C)C)c3c(F)cccc3F)nc2n1 [Compound 280],90,100,60,100,50,100,80,100,100,50,90,100,100,10,100
